Experimental data published in the supplement of paper PMC11628255, “Interference of metal ions on the bioluminescent signal of firefly, Renilla, and NanoLuc luciferases in high-throughput screening assays” (Frontiers in Chemistry, 2024).

How the values were obtained:
Assay in all cases: normalised percent inhibition of luminescence (vs positive and negative controls); higher = stronger inhibition
[1] = system: firefly luciferase (FLuc)
Experimental: (§1)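 Concentration-response (>=11 concentrations) of metal salts on purified FLuc, NLuc or RLuc luminescence in screening (SC) or 100 mM HEPES (H) buffer; salt pre-incubated with enzyme 10 min at RT, read 10 min after substrate. Normalised percent inhibition vs plate positive (PTC-124, isradipine, BTS) and DMSO negative controls; triplicate wells.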

[2] = system: NanoLuc luciferase (NLuc)
Experimental: as §1

[3] = system: Renilla luciferase (RLuc)
Experimental: as §1

O=[N+]([O-])[O-].O=[N+]([O-])[O-].O=[N+]([O-])[O-].[Ga+3] [gallium(III) nitrate]
normalised percent inhibition [%]
Conditions | 100 mM HEPES buffer | screening conditions buffer
[1], metal salt concentration 0.0001 mM | -32.2 | 19.5
[1], metal salt concentration 0.00025 mM | -34.5 | -10.2
[1], metal salt concentration 0.0005 mM | -31.8 | 10
[1], metal salt concentration 0.001 mM | -39.5 | -11.4
[1], metal salt concentration 0.01 mM | 27.3 | –
[1], metal salt concentration 0.025 mM | 90.2 | -13.5
[1], metal salt concentration 0.05 mM | 98.3 | –
[1], metal salt concentration 0.1 mM | 99.28 | –
[1], metal salt concentration 0.5 mM | 99.8 | –
[1], metal salt concentration 1 mM | 98.9 | –
[1], metal salt concentration 2.5 mM | 99.5 | –
[1], metal salt concentration 5 mM | 100.3 | –
[2], metal salt concentration 0.002 mM | – | 3.99
[2], metal salt concentration 0.005 mM | – | 6.69
[2], metal salt concentration 0.01 mM | – | 2.43
[2], metal salt concentration 0.02 mM | – | 4.43
[2], metal salt concentration 0.05 mM | – | 6.6
[2], metal salt concentration 0.1 mM | – | 7.81
[2], metal salt concentration 0.2 mM | – | 8.25
[2], metal salt concentration 0.5 mM | – | 12.8
[2], metal salt concentration 1 mM | – | 35
[2], metal salt concentration 2.5 mM | – | 89.2
[2], metal salt concentration 5 mM | – | 120
[3], metal salt concentration 0.002 mM | – | -6.33
[3], metal salt concentration 0.005 mM | – | -7.44
[3], metal salt concentration 0.01 mM | – | -4.58
[3], metal salt concentration 0.02 mM | – | -6.17
[3], metal salt concentration 0.05 mM | – | -6.25
[3], metal salt concentration 0.1 mM | – | -7.99
[3], metal salt concentration 0.2 mM | – | -8.55
[3], metal salt concentration 0.5 mM | – | -5.45
[3], metal salt concentration 1 mM | – | -8.55
[3], metal salt concentration 2.5 mM | – | -0.965
[3], metal salt concentration 5 mM | – | 71.8

O=[N+]([O-])[O-].O=[N+]([O-])[O-].[Cu+2] [copper(II) nitrate]
normalised percent inhibition [%]
Conditions | [1] | [2] | [3]
metal salt concentration 0.0001 mM, 100 mM HEPES buffer | 87.3 | -0.372 | -51.9
metal salt concentration 0.00025 mM, 100 mM HEPES buffer | 98.97 | -0.297 | -48.5
metal salt concentration 0.0005 mM, 100 mM HEPES buffer | 100.2 | 1.75 | -45.4
metal salt concentration 0.001 mM, 100 mM HEPES buffer | 100.5 | 0.0805 | -40
metal salt concentration 0.002 mM, screening conditions buffer | – | 14.1 | -3.55
metal salt concentration 0.005 mM, screening conditions buffer | – | 18.8 | -13.6
metal salt concentration 0.01 mM, 100 mM HEPES buffer | – | 7.71 | 62.8
metal salt concentration 0.01 mM, screening conditions buffer | – | 65.1 | -1.01
metal salt concentration 0.02 mM, screening conditions buffer | – | 133 | -23.7
metal salt concentration 0.025 mM, 100 mM HEPES buffer | 100.3 | 59.8 | 105
metal salt concentration 0.05 mM, 100 mM HEPES buffer | 100.6 | 95.4 | 106
metal salt concentration 0.05 mM, screening conditions buffer | – | 135.6 | -13
metal salt concentration 0.1 mM, 100 mM HEPES buffer | 100.5 | 99.6 | 106.6
metal salt concentration 0.1 mM, screening conditions buffer | – | 136.5 | -8.47
metal salt concentration 0.2 mM, screening conditions buffer | – | 136.6 | 105.7
metal salt concentration 0.5 mM, 100 mM HEPES buffer | 100.5 | 101.5 | 105
metal salt concentration 0.5 mM, screening conditions buffer | – | 137.2 | 107
metal salt concentration 1 mM, 100 mM HEPES buffer | 100.4 | 101.9 | –
metal salt concentration 1 mM, screening conditions buffer | – | 137.4 | 105.8
metal salt concentration 2.5 mM, 100 mM HEPES buffer | 100.4 | 101 | –
metal salt concentration 2.5 mM, screening conditions buffer | – | 137.3 | 105.7
metal salt concentration 5 mM, 100 mM HEPES buffer | 99.95 | 102.11 | –
metal salt concentration 5 mM, screening conditions buffer | – | 137.49 | 106.3

O=[N+]([O-])[O-].O=[N+]([O-])[O-].[Zn+2] [zinc nitrate]
normalised percent inhibition [%]
Conditions | [1] | [2] | [3]
metal salt concentration 10 nM, 100 mM HEPES buffer | 16.5 | – | –
metal salt concentration 50 nM, 100 mM HEPES buffer | -0.254 | – | –
metal salt concentration 0.0001 mM, 100 mM HEPES buffer | -1.38 | – | –
metal salt concentration 0.00025 mM, 100 mM HEPES buffer | 5.03 | – | –
metal salt concentration 0.0005 mM, 100 mM HEPES buffer | 35.7 | – | –
metal salt concentration 0.001 mM, 100 mM HEPES buffer | 47.4 | – | –
metal salt concentration 0.002 mM, screening conditions buffer | 21.1 | 0.728 | -5.83
metal salt concentration 0.005 mM, screening conditions buffer | 16.4 | -0.897 | -7.07
metal salt concentration 0.01 mM, screening conditions buffer | 20.5 | 10.7 | -4.95
metal salt concentration 0.02 mM, screening conditions buffer | 17.9 | 7.25 | -5.53
metal salt concentration 0.025 mM, 100 mM HEPES buffer | 86.7 | – | –
metal salt concentration 0.05 mM, 100 mM HEPES buffer | 92.6 | – | –
metal salt concentration 0.05 mM, screening conditions buffer | 11.7 | 35.8 | -2.83
metal salt concentration 0.1 mM, 100 mM HEPES buffer | 96.3 | – | –
metal salt concentration 0.1 mM, screening conditions buffer | 28.6 | 66 | -8.31
metal salt concentration 0.2 mM, screening conditions buffer | 15 | 78.9 | -2.75
metal salt concentration 0.5 mM, 100 mM HEPES buffer | 100.2 | – | –
metal salt concentration 0.5 mM, screening conditions buffer | 29.1 | 77 | -0.599
metal salt concentration 1 mM, 100 mM HEPES buffer | 100.1 | – | –
metal salt concentration 1 mM, screening conditions buffer | 46.4 | 89 | 8.71
metal salt concentration 2.5 mM, 100 mM HEPES buffer | 100.4 | – | –
metal salt concentration 2.5 mM, screening conditions buffer | 100.6 | 111 | -1
metal salt concentration 5 mM, 100 mM HEPES buffer | 100.2 | – | –
metal salt concentration 5 mM, screening conditions buffer | 100.2 | 126 | 85.5

O=[N+]([O-])[O-].O=[N+]([O-])[O-].[Cd+2] [cadmium nitrate]
normalised percent inhibition [%]
Conditions | [1] | [2] | [3]
metal salt concentration 0.0001 mM, 100 mM HEPES buffer | -14 | -0.809 | -40.7
metal salt concentration 0.00025 mM, 100 mM HEPES buffer | -6.16 | -0.623 | -15.8
metal salt concentration 0.0005 mM, 100 mM HEPES buffer | 6.48 | -3.63 | -51.3
metal salt concentration 0.001 mM, 100 mM HEPES buffer | 33.8 | -0.485 | -29.6
metal salt concentration 0.002 mM, screening conditions buffer | – | 4.83 | -8.95
metal salt concentration 0.005 mM, screening conditions buffer | – | 6.73 | -5.21
metal salt concentration 0.01 mM, screening conditions buffer | – | 0.612 | -13.5
metal salt concentration 0.02 mM, screening conditions buffer | – | -0.781 | -3.71
metal salt concentration 0.025 mM, 100 mM HEPES buffer | 95.9 | -1.09 | -16
metal salt concentration 0.05 mM, 100 mM HEPES buffer | 99.08 | 4.79 | -20.9
metal salt concentration 0.05 mM, screening conditions buffer | – | 17.7 | -1.96
metal salt concentration 0.1 mM, 100 mM HEPES buffer | 99.41 | 13 | 18
metal salt concentration 0.1 mM, screening conditions buffer | – | 7.22 | -1.09
metal salt concentration 0.2 mM, screening conditions buffer | – | 20.6 | -5.06
metal salt concentration 0.5 mM, 100 mM HEPES buffer | 100.3 | 18.6 | 47.1
metal salt concentration 0.5 mM, screening conditions buffer | – | 30.7 | 39.6
metal salt concentration 1 mM, 100 mM HEPES buffer | 100.3 | 24.8 | 95.1
metal salt concentration 1 mM, screening conditions buffer | – | 56.2 | 68.6
metal salt concentration 2.5 mM, 100 mM HEPES buffer | 100.3 | 20.6 | 104
metal salt concentration 2.5 mM, screening conditions buffer | – | 93.1 | 79.4
metal salt concentration 5 mM, 100 mM HEPES buffer | 99.3 | 26.5 | 105
metal salt concentration 5 mM, screening conditions buffer | – | 113 | 93.4

[Cl][Fe][Cl] [iron(II) chloride]
normalised percent inhibition [%]
Conditions | [1] | [2] | [3]
metal salt concentration 0.0001 mM, 100 mM HEPES buffer | -43.3 | -0.558 | -50
metal salt concentration 0.00025 mM, 100 mM HEPES buffer | -33.6 | -2.01 | -20.5
metal salt concentration 0.0005 mM, 100 mM HEPES buffer | -33.5 | -2.14 | -32.5
metal salt concentration 0.001 mM, 100 mM HEPES buffer | -45.9 | -0.324 | -19.3
metal salt concentration 0.002 mM, screening conditions buffer | -3.52 | -2.42 | -4.21
metal salt concentration 0.005 mM, screening conditions buffer | 1.02 | 1.43 | 1.72
metal salt concentration 0.01 mM, screening conditions buffer | 2 | 5.7 | -1.72
metal salt concentration 0.02 mM, screening conditions buffer | 1.67 | -0.122 | 16.1
metal salt concentration 0.025 mM, 100 mM HEPES buffer | 53.6 | 3.65 | 16.3
metal salt concentration 0.05 mM, 100 mM HEPES buffer | 99.99 | 5.35 | 43.1
metal salt concentration 0.05 mM, screening conditions buffer | 3.62 | -5.75 | -2.31
metal salt concentration 0.1 mM, 100 mM HEPES buffer | 100.4 | 17.2 | 86.8
metal salt concentration 0.1 mM, screening conditions buffer | 14.5 | 22.5 | 54.2
metal salt concentration 0.2 mM, screening conditions buffer | 22.9 | 40.4 | 71.6
metal salt concentration 0.5 mM, 100 mM HEPES buffer | 99.99 | 61.9 | 105
metal salt concentration 0.5 mM, screening conditions buffer | 98 | 64 | 84.8
metal salt concentration 1 mM, 100 mM HEPES buffer | 100.5 | 85.4 | 103
metal salt concentration 1 mM, screening conditions buffer | 100.7 | 96 | 93.3
metal salt concentration 2.5 mM, 100 mM HEPES buffer | 100.2 | 99.74 | 108.1
metal salt concentration 2.5 mM, screening conditions buffer | 99.42 | 151 | 105
metal salt concentration 5 mM, 100 mM HEPES buffer | 100.3 | 101.7 | 108
metal salt concentration 5 mM, screening conditions buffer | 100.9 | 160.2 | 106
